According to patent US20040192888A1, “Method of preparing peptide with high yield and high purity using2-(4-nitrophenylsulfonyl) ethoxycarbonyl-amino acids” (priority 2001, published 2004):

Experiment: Dissolution comparison of Nα-Nsc-amino acids and Nα-Fmoc-amino acids
Assay type: physicochemical
Set-up: key: ◯: dissolution; Δ: partial dissolution; X: no dissolution
Conditions: for Dissolved state, Fmoc, column B / Dissolved state, Fmoc, column A / Dissolved state, Fmoc, column D / Dissolved state, Fmoc, column C: Fmoc-amino acid; for Dissolved state, Fmoc, column B / Dissolved state, Fmoc, column A / Dissolved state, Nsc, column B / Dissolved state, Nsc, column A: 100 mg in 1 ml dichloromethane; for Dissolved state, Fmoc, column B / Dissolved state, Fmoc, column D / Dissolved state, Nsc, column B / Dissolved state, Nsc, column D: heated at 40° C. for 5 minutes, then room temperature 5 minutes; for Dissolved state, Fmoc, column A / Dissolved state, Fmoc, column C / Dissolved state, Nsc, column A / Dissolved state, Nsc, column C: stirring 5 minutes; for Dissolved state, Fmoc, column D / Dissolved state, Fmoc, column C / Dissolved state, Nsc, column D / Dissolved state, Nsc, column C: 15% DMF/DCM; for Dissolved state, Nsc, column B / Dissolved state, Nsc, column A / Dissolved state, Nsc, column D / Dissolved state, Nsc, column C: Nsc-amino acid
Description: Since only amino acids fully dissolved in a solvent can be used in acylation reactions, the following tests were performed to find solvent conditions in which amino acids can be completely dissolved.
100 mg of each of Nα-Nsc-amino acids and Nα-Fmoc-amino acids shown in Table 1, below, were precisely weighed and added to two containers added with 1 ml of dichloromethane (hereinafter, referred to as “DCM”), followed by stirring for 5 minutes. The dissolved states of amino acids were observed and are expressed in column A of the following Table 1.
Other amino acids, exclusive of totally dissolved amino acids, were heated in an oven at 40° C. for 5 minutes, and allowed to stand at room temperature for 5 minutes. Their dissolved states are shown in column B.
As such, the undissolved amino acids were dissolved in 15% dimethylformamide (hereinafter, referred to as “DMF”)/DCM in the same manner as in the case of the above column A, and their dissolved states are presented in column C.
Still undissolved amino acids were heated in an oven at 40° C. for 5 minutes, and allowed to stand at room temperature for 5 minutes. Their dissolved states were observed and are shown in column D.

| Dissolved state, Fmoc, column B | Dissolved state, Fmoc, column A | Dissolved state, Fmoc, column D | Dissolved state, Fmoc, column C | Dissolved state, Nsc, column B | Dissolved state, Nsc, column A | Dissolved state, Nsc, column D | Dissolved state, Nsc, column C | SMILES |
| --- | --- | --- | --- | --- | --- | --- | --- | --- |
| ◯ | Δ | ◯ | ◯ | – | – | – | – | CC(C)C[C@@H](NC(=O)OCC1c2ccccc2-c2ccccc21)C(=O)O [Fmoc-Leu, reference compound] |
| ◯ | Δ | ◯ | ◯ | – | – | – | – | CC(C)(C)Oc1ccc(CC(NC(=O)OCC2c3ccccc3-c3ccccc32)C(=O)O)cc1 (stereo not drawn) [Fmoc-Tyr, reference compound] |
| – | – | – | – | ◯ | Δ | ◯ | ◯ | CSCC[C@H](NC(=O)OCCS(=O)(=O)c1ccc([N+](=O)[O-])cc1)C(=O)O [Nsc-Met] |
| X | X | ◯ | Δ | – | – | – | – | C[C@H](NC(=O)OCC1c2ccccc2-c2ccccc21)C(=O)O [Fmoc-Ala, reference compound] |
| X | X | ◯ | Δ | – | – | – | – | CC(=O)NCSCC(NC(=O)OCC1c2ccccc2-c2ccccc21)C(=O)O (stereo not drawn) [Fmoc-Cys, reference compound] |
| X | X | ◯ | Δ | – | – | – | – | O=C(N[C@@H](Cc1ccccc1)C(=O)O)OCC1c2ccccc2-c2ccccc21 [Fmoc-Phe, reference compound] |
| ◯ | ◯ | ◯ | ◯ | – | – | – | – | CC(C)(C)OCC(NC(=O)OCC1c2ccccc2-c2ccccc21)C(=O)O (stereo not drawn) [Fmoc-Ser, reference compound] |
| – | – | – | – | X | X | ◯ | ◯ | O=C(N[C@@H](Cc1ccccc1)C(=O)O)OCCS(=O)(=O)c1ccc([N+](=O)[O-])cc1 [Nsc-Phe] |
| ◯ | ◯ | ◯ | ◯ | – | – | – | – | O=C(O)[C@@H]1CCCN1C(=O)OCC1c2ccccc2-c2ccccc21 [Fmoc-Pro, reference compound] |
| ◯ | ◯ | ◯ | ◯ | – | – | – | – | CC(C)(C)OC(=O)NCCCCC(NC(=O)OCC1c2ccccc2-c2ccccc21)C(=O)O (stereo not drawn) [Fmoc-Lys, reference compound] |
| ◯ | ◯ | ◯ | ◯ | – | – | – | – | NC(=O)CC[C@H](NC(=O)OCC1c2ccccc2-c2ccccc21)C(=O)O [Fmoc-Gln, reference compound] |
| – | – | – | – | ◯ | ◯ | ◯ | ◯ | CC(C)(C)OC(=O)CCC(NC(=O)OCCS(=O)(=O)c1ccc([N+](=O)[O-])cc1)C(=O)O (stereo not drawn) [Nsc-Glu] |
| – | – | – | – | ◯ | ◯ | ◯ | ◯ | O=C(O)[C@@H]1CCCN1C(=O)OCCS(=O)(=O)c1ccc([N+](=O)[O-])cc1 [Nsc-Pro] |
| – | – | – | – | ◯ | ◯ | ◯ | ◯ | CC(C)(C)OC(=O)NCCCCC(NC(=O)OCCS(=O)(=O)c1ccc([N+](=O)[O-])cc1)C(=O)O (stereo not drawn) [Nsc-Lys] |
| ◯ | ◯ | ◯ | ◯ | – | – | – | – | O=C(NC(Cc1cn(C(c2ccccc2)(c2ccccc2)c2ccccc2)cn1)C(=O)O)OCC1c2ccccc2-c2ccccc21 (stereo not drawn) [Fmoc-His, reference compound] |
| X | X | ◯ | Δ | – | – | – | – | O=C(O)CNC(=O)OCC1c2ccccc2-c2ccccc21 [Fmoc-Gly, reference compound] |
| – | – | – | – | ◯ | Δ | ◯ | ◯ | O=C(NC(Cc1cn(C(c2ccccc2)(c2ccccc2)c2ccccc2)cn1)C(=O)O)OCCS(=O)(=O)c1ccc([N+](=O)[O-])cc1 (stereo not drawn) [Nsc-His] |

| Dissolved state, Fmoc, column B | Dissolved state, Fmoc, column A | Dissolved state, Fmoc, column D | Dissolved state, Fmoc, column C | Dissolved state, Nsc, column B | Dissolved state, Nsc, column A | Dissolved state, Nsc, column D | Dissolved state, Nsc, column C | SMILES |
| --- | --- | --- | --- | --- | --- | --- | --- | --- |
| – | – | – | – | ◯ | ◯ | ◯ | ◯ | CC(C)(C)Oc1ccc(CC(NC(=O)OCCS(=O)(=O)c2ccc([N+](=O)[O-])cc2)C(=O)O)cc1 (stereo not drawn) [Nsc-Tyr] |
| X | X | ◯ | ◯ | – | – | – | – | CC(C)[C@H](NC(=O)OCC1c2ccccc2-c2ccccc21)C(=O)O [Fmoc-Val, reference compound] |
| ◯ | X | ◯ | ◯ | – | – | – | – | CSCC[C@H](NC(=O)OCC1c2ccccc2-c2ccccc21)C(=O)O [Fmoc-Met, reference compound] |
| – | – | – | – | X | X | ◯ | Δ | O=C(N[C@@H](Cc1c[nH]c2ccccc12)C(=O)O)OCCS(=O)(=O)c1ccc([N+](=O)[O-])cc1 [Nsc-Trp] |
| X | X | ◯ | ◯ | – | – | – | – | O=C(NC(Cc1c[nH]c2ccccc12)C(=O)O)OCC1c2ccccc2-c2ccccc21 (stereo not drawn) [Fmoc-Trp, reference compound] |
| Δ | Δ | ◯ | ◯ | – | – | – | – | CC[C@H](C)[C@H](NC(=O)OCC1c2ccccc2-c2ccccc21)C(=O)O [Fmoc-Iie, reference compound] |
| – | – | – | – | ◯ | ◯ | ◯ | ◯ | CC(C)(C)OCC(NC(=O)OCCS(=O)(=O)c1ccc([N+](=O)[O-])cc1)C(=O)O (stereo not drawn) [Nsc-Ser] |
| – | – | – | – | ◯ | Δ | ◯ | ◯ | CC[C@H](C)[C@H](NC(=O)OCCS(=O)(=O)c1ccc([N+](=O)[O-])cc1)C(=O)O [Nsc-Iie] |
| – | – | – | – | ◯ | ◯ | ◯ | ◯ | Cc1c(C)c(S(=O)(=O)N=C(N)NCCCC(NC(=O)OCCS(=O)(=O)c2ccc([N+](=O)[O-])cc2)C(=O)O)c(C)c2c1OC(C)(C)C2 (stereo not drawn) [Nsc-Arg] |
| – | – | – | – | X | X | ◯ | Δ | CC(C)CC(NC(=O)OCCS(=O)(=O)c1ccc([N+](=O)[O-])cc1)C(=O)O (stereo not drawn) [Nsc-Leu] |
| – | – | – | – | X | X | ◯ | Δ | O=C(O)CNC(=O)OCCS(=O)(=O)c1ccc([N+](=O)[O-])cc1 [Nsc-Gly] |
| – | – | – | – | X | X | ◯ | ◯ | C[C@H](NC(=O)OCCS(=O)(=O)c1ccc([N+](=O)[O-])cc1)C(=O)O [Nsc-Ala] |
| – | – | – | – | X | X | ◯ | ◯ | O=C(CC(NC(=O)OCCS(=O)(=O)c1ccc([N+](=O)[O-])cc1)C(=O)O)NC(c1ccccc1)(c1ccccc1)c1ccccc1 (stereo not drawn) [Nsc-Asn] |
| ◯ | ◯ | ◯ | ◯ | – | – | – | – | CC(OC(C)(C)C)C(NC(=O)OCC1c2ccccc2-c2ccccc21)C(=O)O (stereo not drawn) [Fmoc-Thr, reference compound] |
| – | – | – | – | ◯ | ◯ | ◯ | ◯ | CC(C)C(NC(=O)OCCS(=O)(=O)c1ccc([N+](=O)[O-])cc1)C(=O)O (stereo not drawn) [Nsc-Val] |
| – | – | – | – | ◯ | ◯ | ◯ | ◯ | CC(OC(C)(C)C)C(NC(=O)OCCS(=O)(=O)c1ccc([N+](=O)[O-])cc1)C(=O)O (stereo not drawn) [Nsc-Thr] |
